Measurements published in article PMC10005104 (Molecules, 2023).
Where “and” joins values, the source holds several entries; their conditions need not be identical. Equal values may be shown once. Entries after “also recorded” stand apart in the source; their conditions may differ. Where a name gives a salt, the structure may show the parent alone. Read-outs that look alike come from different tables or passages of the source.

Tests used:
[1] = biological target: T1, AChE from electrophorus electricus (eeAChE) (Electrophorus electricus, UniProt O42275); conditions: cited from earlier work
T1 construct: purchased Sigma-Aldrich (Steinheim, Germany)
T1 sequence (O42275 24-633): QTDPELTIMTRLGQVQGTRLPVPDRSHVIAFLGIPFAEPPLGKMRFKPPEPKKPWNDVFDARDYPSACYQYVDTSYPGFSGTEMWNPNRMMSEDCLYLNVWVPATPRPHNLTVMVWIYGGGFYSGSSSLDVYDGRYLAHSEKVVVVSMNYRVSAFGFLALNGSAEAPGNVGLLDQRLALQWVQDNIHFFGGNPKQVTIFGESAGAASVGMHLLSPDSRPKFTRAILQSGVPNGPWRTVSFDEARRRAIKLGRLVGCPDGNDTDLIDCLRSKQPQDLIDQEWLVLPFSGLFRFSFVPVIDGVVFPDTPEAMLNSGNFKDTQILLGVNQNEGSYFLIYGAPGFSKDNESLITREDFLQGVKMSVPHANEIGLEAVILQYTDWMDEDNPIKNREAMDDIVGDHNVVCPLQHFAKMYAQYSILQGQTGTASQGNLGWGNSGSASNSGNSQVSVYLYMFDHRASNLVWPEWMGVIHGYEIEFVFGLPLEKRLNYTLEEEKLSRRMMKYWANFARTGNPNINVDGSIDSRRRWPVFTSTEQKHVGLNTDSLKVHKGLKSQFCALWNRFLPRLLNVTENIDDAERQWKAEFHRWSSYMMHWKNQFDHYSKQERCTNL

[2] = biological target: T2, BuChE from equine serum (eqBuChE) (Equus caballus, UniProt P81908); conditions: cited from earlier work
T2 construct: BuChE from equine serum (eqBuChE); purchased Sigma-Aldrich (Steinheim, Germany); host or cells: equine serum
T2 sequence (P81908 whole entry): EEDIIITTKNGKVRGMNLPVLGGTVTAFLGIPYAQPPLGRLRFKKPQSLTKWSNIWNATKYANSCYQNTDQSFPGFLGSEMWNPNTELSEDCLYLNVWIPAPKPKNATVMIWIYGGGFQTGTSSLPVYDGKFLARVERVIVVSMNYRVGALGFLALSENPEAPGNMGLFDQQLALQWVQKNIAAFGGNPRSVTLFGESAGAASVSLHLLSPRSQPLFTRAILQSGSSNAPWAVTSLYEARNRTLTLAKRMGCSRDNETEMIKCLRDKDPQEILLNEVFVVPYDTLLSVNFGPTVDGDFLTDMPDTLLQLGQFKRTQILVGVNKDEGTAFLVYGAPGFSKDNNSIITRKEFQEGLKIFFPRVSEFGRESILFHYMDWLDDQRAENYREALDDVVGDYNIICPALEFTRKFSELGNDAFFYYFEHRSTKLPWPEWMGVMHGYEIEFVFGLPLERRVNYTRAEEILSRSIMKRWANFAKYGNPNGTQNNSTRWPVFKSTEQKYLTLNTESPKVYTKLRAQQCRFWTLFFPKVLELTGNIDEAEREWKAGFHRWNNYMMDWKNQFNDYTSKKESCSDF

hH3R [3] = conditions: cited from earlier work
human H3 receptor (hH3R) = biological target: T3, human H3 receptor (hH3R) (Homo sapiens, UniProt Q9Y5N1); test: [3H]-Nα-methylhistamine radioligand binding assay, HEK293 cell membranes expressing hH3R; conditions: hH3R Ki Mean [CI 95%], HEK293 cells expressing human H3 receptor; at least three independent repetitions
T3 construct: expressed in transfected cells; host or cells: HEK293
T3 sequence (Q9Y5N1 whole entry): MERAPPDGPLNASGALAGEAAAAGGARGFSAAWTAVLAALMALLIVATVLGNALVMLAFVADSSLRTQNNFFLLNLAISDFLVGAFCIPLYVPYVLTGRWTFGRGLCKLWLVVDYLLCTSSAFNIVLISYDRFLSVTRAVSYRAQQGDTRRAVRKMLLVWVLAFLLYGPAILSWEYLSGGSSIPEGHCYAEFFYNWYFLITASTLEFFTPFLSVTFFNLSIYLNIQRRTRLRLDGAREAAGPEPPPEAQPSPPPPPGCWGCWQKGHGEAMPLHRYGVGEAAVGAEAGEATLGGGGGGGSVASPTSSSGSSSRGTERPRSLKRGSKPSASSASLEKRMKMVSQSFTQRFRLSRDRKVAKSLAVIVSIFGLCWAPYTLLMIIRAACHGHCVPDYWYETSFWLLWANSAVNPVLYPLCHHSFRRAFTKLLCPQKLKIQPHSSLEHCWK
Method: The affinity for hH3R was assessed in vitro in radioligand binding assays, using membrane preparations of HEK293 cells stably expressing hH3R, while [^3H]-N^α-methylhistamine was used as a radioligand. The exact procedure was described previously by Kottke et al.. Novel compounds were tested as oxalic acid salts. […]. The activity depended on all three variables, i.e., the presence of an amine group, the chain length (five or six carbons), and the type of substituent in the phenyl ring. With regard to the change in the amine moiety, it can be observed that, regardless of the length of the chain and the type of R substituent, the activity of the derivatives was arranged in the following order: 3-methylpiperidine ≥ piperidine ≥ azepane >> 4-metylpiperidine derivatives. Regarding the length of the carbon chain, compounds bearing the pentylene chain are characterized by a higher binding affinity to the receptor than hexylene derivatives (exception: 10). […]
H3R receptor affinity assays were performed in the radioligand competition assay. Human H3R was stably expressed in HEK293 cells. [^3H]-N^α-Methylhistamine (KD = 3.08 nM) was used as the radioligand. The compounds used in the experiments were dissolved in DMSO. The precise experiment was performed as previously described. Complete curves were obtained for at least seven approximate concentrations, in at least three independent experiments, performed at least in duplicate. Ki values were calculated using the Cheng–Prusoff equation. Results are presented as mean values with confidence intervals (CI) (95%).

[4] = biological target: T1, AChE from electrophorus electricus (eeAChE); test: modified Ellman colorimetric assay, eeAChE; assay type: biochemical; conditions: for IC50: three independent experiments, read-out: eeAChE IC50 Mean ± SEM
Method: All compounds were tested at a concentration of 10 µM in a modified colorimetric method first described by Ellman et al. in the 1960s, using AChE from electrophorus electricus (eeAChE) and BuChE from equine serum (eqBuChE). […]. All results are collected in Table 1. […]. […] No correlation was observed between inhibitory activity and hH3R affinity. The most interesting compounds were among the azepane derivatives. […]. AChE from electrophorus electricus and BuChE from equine serum were purchased from Sigma-Aldrich (Steinheim, Germany). The whole procedure was performed as previously described, using a modified Ellman method in 96-well microplates. Absorbance was measured using an EnSpire multimode microplate reader (PerkinElmer, Waltham, MA, USA) at 412 nm. Initial screening was performed for compounds at a concentration of […]. The percentage of inhibition was calculated by comparison with a blank sample (100% enzyme activity). For compounds showing >70% inhibition of enzyme activity, IC50 values were determined, measuring absorbance at six different inhibitor concentrations. Each concentration was measured in triplicate. IC50 values were calculated using GrapPad Prism 9 software (GraphPad Software, San Diego, CA, USA). Data are expressed as mean ± SEM.

[5] = biological target: T2, BuChE from equine serum (eqBuChE); test: biochemical; conditions: three independent experiments; read-out: eqBuChE IC50 Mean ± SEM
Method: AChE from electrophorus electricus and BuChE from equine serum were purchased from Sigma-Aldrich (Steinheim, Germany). The whole procedure was performed as previously described, using a modified Ellman method in 96-well microplates. […] Initial screening was performed for compounds at a concentration of […]. The percentage of inhibition was calculated by comparison with a blank sample (100% enzyme activity). […] Each concentration was measured in triplicate. IC50 values were calculated using GrapPad Prism 9 software (GraphPad Software, San Diego, CA, USA). Data are expressed as mean ± SEM.

hMAO B = biological target: T4, hMAO B (Homo sapiens, UniProt P27338); test: fluorometric Amplex red MAO assay; assay type: biochemical; conditions: at 1 µM; two independent experiments; read-out: hMAO B % inh
T4 construct: purchased Sigma-Aldrich (Steinheim, Germany)
T4 sequence (P27338 1-520): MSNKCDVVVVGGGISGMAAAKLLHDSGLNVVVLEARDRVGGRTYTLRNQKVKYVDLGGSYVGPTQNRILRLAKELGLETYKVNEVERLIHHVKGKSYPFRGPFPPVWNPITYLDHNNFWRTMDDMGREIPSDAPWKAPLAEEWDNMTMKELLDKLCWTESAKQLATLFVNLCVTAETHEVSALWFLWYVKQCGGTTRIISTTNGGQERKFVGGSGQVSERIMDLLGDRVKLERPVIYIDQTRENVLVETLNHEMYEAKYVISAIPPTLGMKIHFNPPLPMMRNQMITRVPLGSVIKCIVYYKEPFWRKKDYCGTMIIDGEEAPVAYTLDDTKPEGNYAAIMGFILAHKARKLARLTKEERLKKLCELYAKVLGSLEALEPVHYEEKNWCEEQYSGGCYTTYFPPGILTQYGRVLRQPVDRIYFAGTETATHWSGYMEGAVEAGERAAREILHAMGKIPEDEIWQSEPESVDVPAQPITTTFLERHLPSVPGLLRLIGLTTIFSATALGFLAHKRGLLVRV
Method: The ability to inhibit MAO B was estimated by a fluorescence assay, as previously described.
The enzyme was purchased from Sigma-Aldrich (Steinheim, Germany). Screening was carried out at a concentration of 1 micromolar. Inhibitor activity was measured in the presence of p-tyramine.
Data are expressed as mean values of two independent experiments.

MTS assay in HepG2 cells = assay type: cell-based; conditions: human, HepG2 hepatoma cells; at 50 µM, percentage of control (vehicle-treated cells); read-out: HepG2 Cell Viability (%)
Method: (§1) . After the indicated time, the MTS reagent was added directly to the cultured cells for 1 h, and then the absorbance at 490 nm was read. […] The results are presented in Table 2 and Figures S1 and S2 (Supplementary Materials).
(§2) The hepatoma cell line HepG2 (ATCC® HB-8065TM) and SH-SY5Y CRL-2266 neuroblastoma cell line were used to evaluate the toxicity of tested compounds. Tests were conducted as described previously. The CellTiter 96® Aqueous Non-Radioactive Cell Proliferation Assay was purchased from Promega (Madison, WI, USA). […]. […] Each experiment was performed twice, in triplicate.

HepG2 cells = test: MTS assay in HepG2 cells; assay type: cell-based; conditions: Homo sapiens, HepG2; MTS assay, 48 h of exposure
Method: as §1, §2

SH-SY5Y cells = test: MTS assay in SH-SY5Y cells; assay type: cell-based; conditions: Homo sapiens, SH-SY5Y; MTS assay, 24 h of exposure
Method: as §1, §2

[6] = MTS assay in SH-SY5Y cells; assay type: cell-based; conditions: human, SH-SY5Y neuroblastoma cells; at 50 µM, percentage of control (vehicle-treated cells); read-out: SH-SY5Y Cell Viability (%)
Method: as §1, §2

HepG2 and SH-SY5Y cells = test: MTS assay, statements on both cell lines together; assay type: cell-based, human; conditions: HepG2 or SH-SY5Y cells; up to 50 µM
[7] = MTS assay, statements on both cell lines together; assay type: cell-based, human; conditions: human, HepG2 hepatoma cells and SH-SY5Y neuroblastoma cells; HepG2 48 h, SH-SY5Y 24 h; up to 50 µM; read-out: cell viability at the highest doses tested
eeAChE = biological target: T5, eeAChE (Electrophorus electricus, UniProt O42275); test: kinetic study of eeAChE inhibition (Lineweaver-Burk, Cornish-Bowden plots); assay type: biochemical; conditions: substrate acetylthiocholine
T5 construct: purchased Sigma-Aldrich (Steinheim, Germany)
T5 sequence (O42275 24-633): as the sequence (O42275 24-633) above
Method: […]. The Michaelis–Menten equation was used to calculate the maximum velocity (Vmax) and the Michaelis constant (Km).
(§3) The type of line intersection and the location of this intersection confirms the mixed type of inhibition.
(§4) Studies were performed with compounds 16 and 17 using a method as described previously. Vmax and Km values of the Michaelis–Menten kinetics were calculated by nonlinear regression from substrate–velocity curves. Lineweaver–Burk and Cornish–Bowden plots were calculated using linear regression in GraphPad Prism 9 software (GraphPad Software, San Diego, CA, USA). Each experiment was performed in triplicate.

eqBuChE = biological target: T6, eqBuChE (Equus caballus, UniProt P81908); test: kinetic study of eqBuChE inhibition (Lineweaver-Burk, Cornish-Bowden plots); assay type: biochemical, equine; conditions: substrate butyrylthiocholine
T6 construct: BuChE from equine serum (eqBuChE); purchased Sigma-Aldrich (Steinheim, Germany); host or cells: equine serum
T6 sequence (P81908 whole entry): as the sequence (P81908 whole entry) above
Method: The Michaelis–Menten equation was used to calculate the maximum velocity (Vmax) and the Michaelis constant (Km).
as §3, §4

hH3R [8] = conditions: cited from earlier work; remark: listed apart in the source
[9] = tested on: AChE extracted from mouse brains (mbAChE); parameters: method as in PMID 30822710; conditions: cited from earlier work
mpBuChE = tested on: mpBuChE; parameters: method as in PMID 30822710; conditions: cited from earlier work

Compound: O=C(c1ccccc1)c1ccc(OCCCCCN2CCCCCC2)cc1 [lead 2]
- IC50 [1]: 4630 nM
- IC50 [2]: 680 nM
- Ki (hH3R [3]): 40 nM

Compound: CCC(=O)c1ccc(OCCCCCCN2CCCCCC2)cc1.O=C(O)C(=O)O [Compound 17, 1-(4-((6-(Azepan-1-yl)hexyl)oxy)phenyl)propan-1-one hydrogen oxalate]
- Ki (human H3 receptor (hH3R)): < 50 nM and 42 nM
- IC50 [4]: 1060 ± 30 nM
- IC50 [5]: 2860 ± 30 nM
- inhibition at 1 µM (hMAO B): 5%
- viability at 48 h, 50 µM (MTS assay in HepG2 cells): 58 ± 3.54%
- IC50 (HepG2 cells): 60000 nM
- IC50 (SH-SY5Y cells): 111000 nM
- viability at 24 h, 50 µM [6]: 70.3 ± 4.46%
- cell toxicity (HepG2 and SH-SY5Y cells): lack of cell toxicity
- viability at 50 µM [7]: > 50%
- type of eeAChE inhibition (eeAChE): non-competitive (mixed); also recorded: mixed

Compound: CCC(=O)c1ccc(OCCCCCN2CCCCCC2)cc1.O=C(O)C(=O)O [Compound 16, 1-(4-((5-(Azepan-1-yl)pentyl)oxy)phenyl)propan-1-one hydrogen oxalate]
- Ki (human H3 receptor (hH3R)): < 50 nM and 30 nM
- IC50 [4]: 3600 ± 120 nM
- IC50 [5]: 550 ± 20 nM
- inhibition at 1 µM (hMAO B): 6%
- viability at 48 h, 50 µM (MTS assay in HepG2 cells): 67.7 ± 1.14%
- IC50 (HepG2 cells): 92000 nM
- IC50 (SH-SY5Y cells): 357000 nM
- viability at 24 h, 50 µM [6]: 90.3 ± 5.32%
- type of eqBuChE inhibition (eqBuChE): mixed
- cell toxicity (HepG2 and SH-SY5Y cells): lack of cell toxicity
- viability at 50 µM [7]: > 50%

Compound: CCC(=O)c1ccc(OCCCCCN2CCC(C)CC2)cc1 [Compound 12, 1-(4-((5-(4-Methylpiperidin-1-yl)pentyl)oxy)phenyl)propan-1-one hydrogen oxalate]
- Ki (human H3 receptor (hH3R)): 57 nM
- inhibition at 10 µM ([4]; at 10 µM, read-out: eeAChE % inh): 58%
- IC50 [5]: 1290 ± 80 nM
- inhibition at 1 µM (hMAO B): 0%
- viability at 48 h, 50 µM (MTS assay in HepG2 cells): 77.2 ± 4.14%
- IC50 (HepG2 cells): 149000 nM
- IC50 (SH-SY5Y cells): 421000 nM
- viability at 24 h, 50 µM [6]: 90.7 ± 12.9%
- viability at 50 µM [7]: > 50%

Compound: CCN(C)CCCCOc1ccc2c(=O)c(-c3ccc(OCCN4CCCCC4)cc3)coc2c1 [II]
- IC50 (hH3R [8]): 270 nM
- IC50 [9]: 80 nM
- IC50 (mpBuChE): 2890 nM

Compound: N#Cc1ccc(-c2ccc(OCCCN3CCCCCC3)cc2)cc1 [V]
- IC50 [1]: 2630 nM
- IC50 [2]: 1300 nM
- Ki (hH3R [3]): 9 nM

Compound: C=CCN1CCN(CC2Cc3cc(C(C)(C)C)ccc3O2)CC1 (stereo not shown) [VI]
- IC50 [1]: 19100 nM
- IC50 [2]: 13200 nM
- Ki (hH3R [3]): 16 nM

Compound: CCC(=O)c1ccc(OCCCCCN2CCCC(C)C2)cc1 (stereo not shown) [Compound 8, 1-(4-((5-(3-Methylpiperidin-1-yl)pentyl)oxy)phenyl)propan-1-one hydrogen oxalate]
- Ki (human H3 receptor (hH3R)): 12 nM
- IC50 [4]: 2100 ± 60 nM
- IC50 [5]: 1750 ± 50 nM
- inhibition at 1 µM (hMAO B): 19%
- viability at 48 h, 50 µM (MTS assay in HepG2 cells): 70.9 ± 2.92%
- IC50 (HepG2 cells): 142000 nM
- IC50 (SH-SY5Y cells): 349000 nM
- viability at 24 h, 50 µM [6]: 90.7 ± 1.5%
- viability at 50 µM [7]: > 50%

Compound: CN1CCN(CCCN(C)C(=O)c2cc3ccc(Cl)cc3[nH]2)CC1 [I]
- IC50 [1]: 9090 nM
- IC50 [2]: 21100 nM
- EC50 (hH3R [8]): 730 nM
